# Non-standard residues stand in square brackets, D forms with d. No end group written: not given here. pGlu = O=C1CC[C@@H](C(=O)O)N1
# Test system: human adipocytes
# Test: Glycerol release assay (lipolysis) in differentiated human adipocytes
# Type: cell-based
# Conditions: for lipid mobilization activity of insect AKH/HTP peptides and alanine walk analogs (result in words): Example 2, Table 8 peptides; for glycerol releasing activity (result in words) / Percent Glycerol Release over Background: human adipocytes in vitro; for glycerol releasing activity (result in words): 100 nanomolar, 1 micromolar and 10 micromolar
# Experimental: Two assay methods, giving equivalent results, can be used. The results disclosed in Example 2, below, were obtained using an in vitro assay based on measurement of glycerol released into the medium. An alternative assay system, based on the release of radioisotope from adipocytes incubated overnight with 9,10 ^3H-palmitate, can also be used.
# Human subcutaneous preadipocytes, obtained by liposuction (Zen-Bio, Inc. Research Triangle Park, N.C.), are cultured for 3 weeks in 96-well plates in Differentiation medium (DMEM/Hams F10 [1/1, v/v], 15 mM Hepes buffer, 3% FBS, Penicillin/Streptomycin, 33 uM Biotin 17 uM Pantothenate, 100 nM human insulin, 0.5 uM Dexamethasone, 0.2 mM IBMX, and 10 uM thiazolidinedione.
# The assay based on glycerol release is performed by removing the culture medium from differentiated cells, treating the cells with 0.1 ml of the test compounds at the appropriate doses in adipocyte medium (DMEM/Hank's F-10, 15 mM HEPES buffer, 3% FBS, penicillin/streptomycin) followed by incubation at 37 degrees Celsius for 2-5 hours. Isoproterenol is used as positive control and all assays are done in triplicate. At the end of the time points, 0.1 ml of the conditioned media from each well is transferred to a well of a new plate. Glycerol is quantified using standard enzymatic methods, with absorption by oxidized quinoneimine at 540 nm. Briefly, lipolytic activity can be assayed simply by the measurement of glycerol released into the medium since glycerokinase activity is not present in adipocytes (Carpene, C., Methods in Molecular Biology 155: Adipose Tissue Protocols, 1999). Glycerol released to the medium is phosphorylated by adenosine triphosphate (ATP) forming glycerol-1-phosphate (G-1-P) and adenosine-5′-diphosphate (ADP) in the reaction catalyzed by glycerol kinase. G-1-P is then oxidized by glycerol phosphate oxidase to dihydroxyacetone phosphate (DAP) and hydrogen peroxide (H2O2). […] The increase in absorbance at 540 nm is directly proportional to glycerol concentration of the sample.
# [1] = peptide concentration 1 micro M
# [2] = peptide concentration 10 micro M
Molecule,lipid mobilization activity of insect AKH/HTP peptides and alanine walk analogs (result in words),glycerol releasing activity (result in words),Percent Glycerol Release over Background (peptide concentration 100 nM),Percent Glycerol Release over Background [1],Percent Glycerol Release over Background [2]
"pGlu-Leu-Thr-Phe-Thr-Ser-Ser-Trp-GlyNH2 ([pGlu]LTFTSSWG-NH2; SMILES CC(C)C[C@H](NC(=O)[C@@H]1CCC(=O)N1)C(=O)N[C@H](C(=O)N[C@@H](Cc1ccccc1)C(=O)N[C@H](C(=O)N[C@@H](CO)C(=O)N[C@@H](CO)C(=O)N[C@@H](Cc1c[nH]c2ccccc12)C(=O)NCC(N)=O)[C@@H](C)O)[C@@H](C)O; listed as Manduca sexta) [SEQ ID NO: 23, reference compound]",active,–,–,–,–
pGlu-Leu-Asn-Phe-Thr-Ala-Ser-Trp ([pGlu]LNFTASW; listed as Homo sapiens) [Peptide 60],–,no measurable activity,–,–,–
"pGlu-Val-Asn-Phe-Ser-Pro-Gly-Trp-Gly-ThrNH2 ([pGlu]VNFSPGWGT-NH2; SMILES CC(C)[C@H](NC(=O)[C@@H]1CCC(=O)N1)C(=O)N[C@@H](CC(N)=O)C(=O)N[C@@H](Cc1ccccc1)C(=O)N[C@@H](CO)C(=O)N1CCC[C@H]1C(=O)NCC(=O)N[C@@H](Cc1c[nH]c2ccccc12)C(=O)NCC(=O)N[C@H](C(N)=O)[C@@H](C)O; listed as Blaberus discoidalis) [SEQ ID NO: 19, reference compound]",active,–,–,–,–
QLNFTASWG [Peptide 52],–,–,0.9%,13.2%,17%
pGlu-Leu-Asn-Phe-Thr-Ala-Ser-Trp-Gly ([pGlu]LNFTASWG; listed as Homo sapiens) [Peptide 51],–,–,3.8%,24.5%,34.9%
QLNFTASW [Peptide 53],–,–,3.8%,36.8%,18.9%
pGlu-Leu-Asn-Phe-Thr-Ala-Ser-TrpNH2 ([pGlu]LNFTASW-NH2; SMILES CC(C)C[C@H](NC(=O)[C@@H]1CCC(=O)N1)C(=O)N[C@@H](CC(N)=O)C(=O)N[C@@H](Cc1ccccc1)C(=O)N[C@H](C(=O)N[C@@H](C)C(=O)N[C@@H](CO)C(=O)N[C@@H](Cc1c[nH]c2ccccc12)C(N)=O)[C@@H](C)O; listed as Homo sapiens) [Peptide 55],–,low activity,1.9%,5.7%,13.2%
pGlu-Leu-Asn-Phe-Thr-Ala-Ser-Trp-GlyNH2 ([pGlu]LNFTASWG-NH2; SMILES CC(C)C[C@H](NC(=O)[C@@H]1CCC(=O)N1)C(=O)N[C@@H](CC(N)=O)C(=O)N[C@@H](Cc1ccccc1)C(=O)N[C@H](C(=O)N[C@@H](C)C(=O)N[C@@H](CO)C(=O)N[C@@H](Cc1c[nH]c2ccccc12)C(=O)NCC(N)=O)[C@@H](C)O; listed as Homo sapiens) [Peptide 73],–,low activity,0%,0.9%,3.8%
"pGlu-Leu-Asn-Phe-Ser-Thr-Gly-TrpNH2 ([pGlu]LNFSTGW-NH2; SMILES CC(C)C[C@H](NC(=O)[C@@H]1CCC(=O)N1)C(=O)N[C@@H](CC(N)=O)C(=O)N[C@@H](Cc1ccccc1)C(=O)N[C@@H](CO)C(=O)N[C@H](C(=O)NCC(=O)N[C@@H](Cc1c[nH]c2ccccc12)C(N)=O)[C@@H](C)O; listed as Schistocerca gregaria) [SEQ ID NO: 17, reference compound]",active,–,–,–,–
"pGlu-Leu-Asn-Phe-Thr-Pro-Asn-Trp-Gly-ThrNH2 ([pGlu]LNFTPNWGT-NH2; SMILES CC(C)C[C@H](NC(=O)[C@@H]1CCC(=O)N1)C(=O)N[C@@H](CC(N)=O)C(=O)N[C@@H](Cc1ccccc1)C(=O)N[C@H](C(=O)N1CCC[C@H]1C(=O)N[C@@H](CC(N)=O)C(=O)N[C@@H](Cc1c[nH]c2ccccc12)C(=O)NCC(=O)N[C@H](C(N)=O)[C@@H](C)O)[C@@H](C)O; listed as Locusta migratoria) [SEQ ID NO: 18, reference compound]",active,–,–,–,–
QLNFTASW-NH2 [Peptide 54],–,–,2.8%,4.7%,8.5%
QLNFTASWG-NH2 [Peptide 72],–,–,18%,11.3%,18.9%
"CC(C)NCC(O)c1ccc(O)c(O)c1 (stereo not shown) [Iso, Isoproterenol, reference compound]",–,–,213%,262%,206%

# From patent US20050222040A1, “Vertebrate peptide modulators of lipid metabolism” (BLM Group, Inc., priority 2004, published 2005)
